Measurements from article PMC4980009, “Epitope Mapping of a Monoclonal Antibody Directed against Neisserial Heparin Binding Antigen Using Next Generation Sequencing of Antigen-Specific Libraries” (PLoS ONE, 2016).
pKd: −log10 of the molar value.

What was measured:
mAb 31E10/E7 [1] = assay: Inhibition ELISA of mAb 31E10/E7 binding to NHBA-NUbp-His; design: species or system murine
From the text: We sought to verify whether the antigenic fragments identified by phage display analysis reacted against the 31E10/E7 mAb in a molecular context other than capsid proteins and how these binding activities compared to that of the whole antigen molecule. For this analysis, FrI and FrII were produced as GST fusion proteins and probed against the 31E10/E7 mAb in an inhibition ELISA assay. A third fragment, FrIII, encompassing residues F324-D391, was also produced in fusion with GST and used as a negative control. In the ELISA inhibition experiments, the NHBA-NUbp-His fusion protein was used as coating antigen and reactivity against 31E10/E7 was measured in the presence and in the absence of GST-FrI, GST-FrII and GST-FrIII.
The immunoreactivity of NHBA antigenic fragments against the 31E10/E7 mAb was tested using a previously described ELISA inhibition assay. Briefly, the 31E10/E7 mAb (1 μg/ml) was preincubated with micromolar concentrations of competitors (represented by the indicated NHBA fragments or by the entire antigen fused to an histidine tail) prior to the addition to microtiter wells sensitized with the whole fusion antigen (NHBA-NUbp fused to an histidine tail or NHBA-NUbp-His, 5 μg/ml). […] Percent inhibition was calculated by comparing the absorbance value of wells with and without the inhibitors.

mAb 31E10/E7 [2] = assay: Solution-equilibrium ELISA (Friguet) KD of NHBA fragment–mAb complexes; format: binding, murine; conditions: equilibrium in solution, antigen 7 to 480 nM with mAb 0.7 nM, -^§ = No interaction was detected under the tested conditions, read-out: KD ± SD (no interaction detected)
From the text: Next, we sought to directly compare, for their ability to reconstitute the epitope recognized by mAb 31E10/E7, the peptides identified by peptide scanning with the fragments previously identified by PROFILER. To this end, we selected Peptide 5 (Pep-5, spanning P95-E109; Fig 5A) and FrII (D91-A128; Fig 2A) as representatives of the two categories. First, we measured the ability of the fragments to compete with the whole antigen (NHBA-NUbp-His) for binding to mAb 31E10/E7 in the ELISA inhibition assay described above. […] To further analyze this, we measured the affinities of the NHBA fragments for mAb 31E10/E7 using an ELISA assay that can provide reliable estimates of the equilibrium dissociation constant (KD) of antigen-antibody complexes in solution [20].
KD values of complexes between mAb 31E10/E7 and NHBA fragments at equilibrium in solution were measured using the ELISA test of Friguet et al, exactly as described by Heinrich et al.. […] Under these conditions, absorbance is proportional to the concentration of free mAb 31E10/E7 added to each well. The results for each antigen were analyzed using the plot described by Friguet et al ([19]; S2 Fig), which provides a KD value for the complex in solution. Results were expressed as means and standard deviations of the 4 KD values determined for each of the 4 antigen concentrations used to coat the wells.

TPAS
competition with the whole antigen for binding to mAb 31E10/E7 (mAb 31E10/E7 [1]; NHBA-NUbp-His coated 5 μg/ml, mAb 1 μg/ml, Fig 3B, three independent experiments): but not the TPAS tetrapeptide | binding to the mAb (mAb 31E10/E7 [1]; even at high concentrations (Fig 3B)): unable to bind the mAb | pKd (mAb 31E10/E7 [2]): < 6.32
